Results taken from patent publication US20260306460A1, “COMPOSITION FOR REMOVING AND INHIBITING SENESCENT CELLS, AND USES THEREOF” (LIFECEUTIX CO., LTD., priority 2023, published 2026).

How the values were obtained:
[1] = system: proliferating foreskin cells; assay: Survival of proliferating human cells treated with supernatant (secreted fluid) from death-induced cells, Example 13; assay type: cell-based; conditions: 3 days; for viability at 30 µM: Homo sapiens, 72 h
Method: After 3 days, cell viability was measured using CellTiter-Glo Luminescent Cell Viability Assay (Promega) or light microscopy.
After treating cells with the test compound at a high concentration that induces the death of most cells in both non-senescence-induced and senescence-induced cells, the cells were washed three times with PBS to remove the test compound, and replaced with fresh medium and cultured for an additional 3 hours at the time when the compound has entered into the cell but has not yet induced cell death (approximately 1 to 3 hours after compound treatment). During this additional culture, by checking with an optical microscope, etc., the medium supernatants containing secreted fluid from normally proliferating and senescent cells in which cell death was induced were obtained. The obtained medium supernatant was replaced with the medium of normally proliferating and senescent cells, respectively, and cell survival rate was measured after 3 days.

[2] = system: doxorubicin-induced aged C57BL6J mice; assay: SASP mRNA (IL6, CXCL1, CXCL10, IL1B) in doxorubicin-aged mice, Example 22-6, Table 35; assay type: in vivo, mouse; conditions: untreated aged = 100%
Method: (§1) Eight-week-old male C57BL6J mice (KRIBB Laboratory Animal Resource Center) were acclimated to the experimental environment for one week. Afterwards, the anticancer agent doxorubicin was administered intraperitoneally at a concentration of 10 mg/kg, inducing aging for more than 10 days. The aging-induced mice were randomly assigned to experimental and control groups. LX-403 was mixed with a 10% ethanol solution of PEG400 and administered orally at a concentration of 25 mg/kg or intradermally at a concentration of 1 μM for 21 days. LX-1801 was mixed in distilled water with 4% DMSO, 30% PEG300, and 5% Tween80 and administered intradermally at a concentration of 0.4 μM daily for 21 days. LX-2001 was mixed in PBS and administered intradermally at a concentration of 2 μM daily for 21 days. LX-2002 was mixed in distilled water with 4% DMSO, 30% PEG300, and 5% Tween80 and administered intradermally at a concentration of 2 μM daily for 21 days. […] LX-2005 was mixed in distilled water with 4% DMSO, 30% PEG300, and 5% Tween80 and administered intradermally at a concentration of 90 μM daily for 21 days. LX-2007 was mixed in distilled water with 4% DMSO, 30% PEG300, and 5% Tween80 and administered intradermally at a concentration of 90 μM daily for 21 days. […] LX-3002 was mixed in distilled water with 4% DMSO, 30% PEG300, and 5% Tween80 and administered orally at a concentration of 10 mg/kg daily for 21 days. […] LX-5411 was mixed in 5% phosphate-buffered saline (PBS) and administered orally at a concentration of 10 mg/kg daily for 21 days or intradermally at a concentration of 3 μM. LX-5701 was mixed in PBS and administered orally at a concentration of 360 mg/kg daily for 21 days. LX-6807 was mixed in saline and administered intraperitoneally at a concentration of 1 mg/kg daily for 21 days. The control group received only the solution in the same volume. After the end of drug administration, the methods described in each example below were performed.
Using cDNA synthesized in the same manner as in Example 7-6 of WO2023-085787 A1, qRT-PCR was performed and analyzed for senescence-associated secretory factors (SASPs) like IL6, CXCL1, CXCL10, IL1B, etc. […] The mRNA amount of each factor after aging induction was calculated as 100% and compared with the mRNA amount of each factor after LX-5701 treatment.

[3] = system: doxorubicin-induced aged C57BL6J mice; assay: Serum IL6 (ELISA) in doxorubicin-aged mice, Example 22-5, Table 34; assay type: in vivo, mouse; conditions: untreated aged = 100
Method: Eight-week-old male C57BL6J mice (KRIBB Laboratory Animal Resource Center) were acclimated to the experimental environment for one week. Afterwards, the anticancer agent doxorubicin was administered intraperitoneally at a concentration of 10 mg/kg, inducing aging for more than 10 days. The aging-induced mice were randomly assigned to experimental and control groups. LX-403 was mixed with a 10% ethanol solution of PEG400 and administered orally at a concentration of 25 mg/kg or intradermally at a concentration of 1 μM for 21 days. LX-1801 was mixed in distilled water with 4% DMSO, 30% PEG300, and 5% Tween80 and administered intradermally at a concentration of 0.4 μM daily for 21 days. LX-2001 was mixed in PBS and administered intradermally at a concentration of 2 μM daily for 21 days. LX-2002 was mixed in distilled water with 4% DMSO, 30% PEG300, and 5% Tween80 and administered intradermally at a concentration of 2 μM daily for 21 days. […] LX-2005 was mixed in distilled water with 4% DMSO, 30% PEG300, and 5% Tween80 and administered intradermally at a concentration of 90 μM daily for 21 days. […]
The amount of IL6, a senescence-associated secretory factor (SASP), was measured in serum collected from mice using the same method as in Example 7-5 of WO2023-085787 A1 using an enzyme-linked immunosorbent assay (ELISA Kit, R&D Systems).

[4] = system: obesity-induced aged C57BL6J mice; assay: Serum IL6 and activin A (ELISA) in obesity-aged mice, Example 23-3, Table 43; assay type: in vivo, mouse; conditions: 360 mg/kg oral daily for 21 days
Method: 15-week-old male C57BL6J mice (The Jackson Laboratory) were induced to obesity by a high-fat diet using the same method as in Example 9-1 WO2023-085787 A1. After acclimation to the experimental environment for one week, the mice were randomly assigned to experimental and control groups. […] LX-3002 was mixed in distilled water with 4% DMSO, 30% PEG300, and 5% Tween80 and administered orally at a concentration of 10 mg/kg daily for 21 days. LX-5701 was mixed in PBS and administered orally at a concentration of 360 mg/kg daily for 21 days. LX-6807 was mixed in saline and administered intraperitoneally at a concentration of 1 mg/kg daily for 21 days. The control group received only the solution in the same volume. After the end of drug administration, the methods described in each example below were performed.
The levels of IL6 and activin A, senescence-associated secretory factors (SASP), were measured in serum collected from mice using the same method as in Example 7-5 of WO2023-085787 A1 using an enzyme-linked immunosorbent assay (ELISA Kit, R&D Systems).

[5] = system: doxorubicin-induced aged C57BL6J mice; assay: Lipofuscin staining in muscle of doxorubicin-aged mice, Example 22-4, Table 33; assay type: in vivo, mouse; conditions: staining area, untreated aged = 100
Method: Eight-week-old male C57BL6J mice (KRIBB Laboratory Animal Resource Center) were acclimated to the experimental environment for one week. Afterwards, the anticancer agent doxorubicin was administered intraperitoneally at a concentration of 10 mg/kg, inducing aging for more than 10 days. The aging-induced mice were randomly assigned to experimental and control groups. LX-403 was mixed with a 10% ethanol solution of PEG400 and administered orally at a concentration of 25 mg/kg or intradermally at a concentration of 1 μM for 21 days. LX-1801 was mixed in distilled water with 4% DMSO, 30% PEG300, and 5% Tween80 and administered intradermally at a concentration of 0.4 μM daily for 21 days. LX-2001 was mixed in PBS and administered intradermally at a concentration of 2 μM daily for 21 days. LX-2002 was mixed in distilled water with 4% DMSO, 30% PEG300, and 5% Tween80 and administered intradermally at a concentration of 2 μM daily for 21 days. […] LX-2005 was mixed in distilled water with 4% DMSO, 30% PEG300, and 5% Tween80 and administered intradermally at a concentration of 90 μM daily for 21 days. LX-2007 was mixed in distilled water with 4% DMSO, 30% PEG300, and 5% Tween80 and administered intradermally at a concentration of 90 μM daily for 21 days. […]

[6] = system: doxorubicin-induced aged C57BL6J mice; assay: p16 and p21 mRNA in doxorubicin-aged mice, Example 22-2, Table 31; assay type: in vivo, mouse; conditions: untreated aged = 100%
Method: as §1
Mice were sacrificed using the same method as in Example 7-2 of WO2023-085787 A1. RNA was extracted from organ tissues of each site, and cDNA synthesized was used for qRT-PCR and analysis. […] The mRNA amounts of p16 and p21 after aging induction were calculated as 100% and compared with the mRNA amounts of p16 and p21 after LX-5701 treatment.

Compound: COC(=O)c1ccc([C@H]2c3[nH]c4ccccc4c3C[C@H](C(=O)OC)N2C(=O)CCl)cc1 [LX-405]
- viability at 30 µM ([1]; supernatant from death-induced proliferating cells): 104%
- viability at 30 µM ([1]; supernatant from death-induced senescent cells): 100%
- Survival ([1]; supernatant from No Cells): 99.4 (±2.4) %

Compound: O=C1C2CCN(CC2)C1CNC(=O)C(F)(F)F (stereo not drawn) [LX-5701]
- CXCL1 mRNA (%), Liver ([2]; Liver): 68 (±14.8) %
- CXCL10 mRNA (%), Liver ([2]; Liver): 75 (±4.1) %
- IL1β mRNA (%), Liver ([2]; Liver): 73 (±3.5) %
- IL6 mRNA (%), Liver ([2]; Liver): 64 (±7.5) %
- CXCL1 mRNA (%), eWAT ([2]; eWAT): 74 (±4.7) %
- CXCL10 mRNA (%), eWAT ([2]; eWAT): 69 (±7.0) %
- IL1β mRNA (%), eWAT ([2]; eWAT): 56 (±11.2) %
- IL6 mRNA (%), eWAT ([2]; eWAT): 55 (±15.1) %
- IL6 (%) [3]: 57 (±21.5) %
- Activin A ([4]; untreated 100 (±7.5)): 61.7 (±14.0) %
- IL6 ([4]; untreated 100 (±11.6)): 53.9 (±15.4) %
- Lipofuscin (%), Muscle [5]: 64 (±13.1) %
- p16 mRNA (%), Kidney ([6]; Kidney): 78 (±7.7) %
- p21 mRNA (%), Kidney ([6]; Kidney): 75 (±5.8) %
- p16 mRNA (%), Liver ([6]; Liver): 62 (±7.5) %
- p21 mRNA (%), Liver ([6]; Liver): 64 (±11.7) %
- p16 mRNA (%), eWAT ([6]; eWAT): 55 (±11.5) %
- p21 mRNA (%), eWAT ([6]; eWAT): 71 (±8.8) %
